Laboratory results as given in PubChem BioAssay (NCI).
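Values below derive from 48-hour exposures of cells grown in 96-well plates, with endpoints linearly interpolated between the two concentrations bracketing the appropriate inhibition level. Abbreviation: GI50, concentration required for 50% inhibition of growth. TGI is the concentration that stops growth completely.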

How the values were obtained:
Assay in all cases: NCI-60 cell line screen, 48 h
SF-539 CNS = system: SF-539 CNS
SK-MEL-5 melanoma = system: SK-MEL-5 melanoma
HS 578T breast = system: HS 578T breast
MOLT-4 leukemia = system: MOLT-4 leukemia
MALME-3M melanoma = system: MALME-3M melanoma
HT29 colon = system: HT29 colon
786-0 renal = system: 786-0 renal
OVCAR-4 ovarian = system: OVCAR-4 ovarian
NCI-H23 lung = system: NCI-H23 lung
ACHN renal = system: ACHN renal

`Cc1cnc(C(=O)Nc2nc3ccc(S(=O)(=O)Nc4ccc(C(C)(C)C)cc4)cc3[nH]2)cn1` gave a GI50 (SF-539 CNS) of 0.333 µM, a TGI (SF-539 CNS) of 1.87 µM and a GI50 (SK-MEL-5 melanoma) of 0.33 µM. For the same molecule, the TGI (SK-MEL-5 melanoma) was 7.09 µM, the GI50 (HS 578T breast) was 0.422 µM and the TGI (HS 578T breast) was 10.6 µM. For the same molecule, the GI50 (MOLT-4 leukemia) was 0.562 µM, the TGI (MOLT-4 leukemia) was 5.9 µM and the GI50 (MALME-3M melanoma) was 0.59 µM. The TGI (MALME-3M melanoma) was 14.5 µM, the GI50 (HT29 colon) was 0.388 µM and the TGI (HT29 colon) was 4.23 µM. It also gave a GI50 (786-0 renal) of 0.552 µM, a TGI (786-0 renal) of 13.7 µM and a GI50 (OVCAR-4 ovarian) of 1.46 µM. The TGI (OVCAR-4 ovarian) was 17.3 µM, the GI50 (NCI-H23 lung) was 0.606 µM and the TGI (NCI-H23 lung) was 12.7 µM. It also gave a GI50 (ACHN renal) of 0.518 µM and a TGI (ACHN renal) of 14.2 µM.
`Nc1nc(N)c(CCCCc2ccc([N+](=O)[O-])cc2)c(N)n1` was tested, and the TGI (SF-539 CNS) was > 100 µM, the TGI (SK-MEL-5 melanoma) was > 100 µM and the TGI (HS 578T breast) was > 100 µM. For the same molecule, the TGI (MOLT-4 leukemia) was > 100 µM, the TGI (MALME-3M melanoma) was > 100 µM and the TGI (HT29 colon) was > 100 µM. The TGI (786-0 renal) was > 100 µM, the TGI (OVCAR-4 ovarian) was > 100 µM and the TGI (NCI-H23 lung) was > 100 µM. For the same molecule, the TGI (ACHN renal) was > 100 µM.
`COc1ccc2c(c1O)[C@@]13CCCC=C1[C@@H](C2)N(C)CC3` was tested, and the TGI (SK-MEL-5 melanoma) was > 100 µM, the TGI (HS 578T breast) was > 100 µM and the TGI (MOLT-4 leukemia) was > 100 µM. The TGI (MALME-3M melanoma) was 3.35 µM, the TGI (HT29 colon) was > 100 µM and the TGI (786-0 renal) was > 100 µM. The TGI (OVCAR-4 ovarian) was > 100 µM, the TGI (NCI-H23 lung) was > 100 µM and the TGI (ACHN renal) was > 100 µM.
`COc1cc2c3c(c4ccc(O)cc4c2cc1OC)[C@@H](O)[C@@H]1CCCN1C3` was tested, and the TGI (SF-539 CNS) was < 0.0114 µM, the TGI (SK-MEL-5 melanoma) was 0.0206 µM and the TGI (HS 578T breast) was 0.00566 µM. The TGI (MALME-3M melanoma) was 0.00314 µM, the TGI (HT29 colon) was 0.034 µM and the TGI (786-0 renal) was 0.0257 µM. For the same molecule, the TGI (OVCAR-4 ovarian) was 0.00239 µM, the TGI (NCI-H23 lung) was 0.0558 µM and the TGI (ACHN renal) was 0.0381 µM.
With `O=C1c2ccccc2C(=O)c2c1ccc1c3ccccc3n(-c3ccccc3)c21` the TGI (SF-539 CNS) was 43.6 µM, the TGI (SK-MEL-5 melanoma) was 29.9 µM and the TGI (HS 578T breast) was 42.7 µM. For the same molecule, the TGI (MOLT-4 leukemia) was 11.1 µM, the TGI (MALME-3M melanoma) was 44.6 µM and the TGI (HT29 colon) was 29.2 µM. For the same molecule, the TGI (786-0 renal) was 52.4 µM, the TGI (OVCAR-4 ovarian) was 33.5 µM and the TGI (NCI-H23 lung) was 34 µM. It also gave a TGI (ACHN renal) of 41.2 µM.
In the case of `O=C(O)CN(CCN(CC(=O)O)CC(=O)O)CC(=O)O.[Cu+2].[Na+]`, the GI50 (SF-539 CNS) is reported as > 100 µM, the TGI (SF-539 CNS) is reported as > 100 µM and the GI50 (SK-MEL-5 melanoma) is reported as > 100 µM. The TGI (SK-MEL-5 melanoma) was > 100 µM, the GI50 (HS 578T breast) was > 100 µM and the TGI (HS 578T breast) was > 100 µM. The GI50 (MOLT-4 leukemia) was > 100 µM, the TGI (MOLT-4 leukemia) was > 100 µM and the GI50 (MALME-3M melanoma) was > 100 µM. For the same molecule, the TGI (MALME-3M melanoma) was > 100 µM, the GI50 (HT29 colon) was > 100 µM and the TGI (HT29 colon) was > 100 µM. For the same molecule, the GI50 (786-0 renal) was > 100 µM, the TGI (786-0 renal) was > 100 µM and the GI50 (OVCAR-4 ovarian) was > 100 µM. For the same molecule, the TGI (OVCAR-4 ovarian) was > 100 µM, the GI50 (NCI-H23 lung) was > 100 µM and the TGI (NCI-H23 lung) was > 100 µM. For the same molecule, the GI50 (ACHN renal) was > 100 µM and the TGI (ACHN renal) was > 100 µM.
In the case of `O=C(NCCN1CCOCC1)c1cc2c(Oc3ccc(NC(=O)C4(C(=O)Nc5ccc(F)cc5)CC4)cc3)ccnc2[nH]1`, the GI50 (SF-539 CNS) is reported as 1.39 µM, the TGI (SF-539 CNS) is reported as 16.5 µM and the GI50 (SK-MEL-5 melanoma) is reported as 3.03 µM. For the same molecule, the TGI (SK-MEL-5 melanoma) was 12.4 µM, the GI50 (HS 578T breast) was 1.32 µM and the TGI (HS 578T breast) was > 71.1 µM. For the same molecule, the GI50 (MOLT-4 leukemia) was 3.48 µM, the TGI (MOLT-4 leukemia) was > 100 µM and the GI50 (MALME-3M melanoma) was 1.1 µM. The TGI (MALME-3M melanoma) was 14.4 µM, the GI50 (HT29 colon) was 3 µM and the TGI (HT29 colon) was 18.7 µM. The GI50 (786-0 renal) was 6.74 µM, the TGI (786-0 renal) was 45.6 µM and the GI50 (OVCAR-4 ovarian) was 5.13 µM. For the same molecule, the TGI (OVCAR-4 ovarian) was > 100 µM, the GI50 (NCI-H23 lung) was 1.59 µM and the TGI (NCI-H23 lung) was > 75.1 µM. For the same molecule, the GI50 (ACHN renal) was 7.84 µM and the TGI (ACHN renal) was > 100 µM.
`CC[C@H](C)[C@H](NC(=O)CN(C)C)C(=O)N(C)[C@H](C[C@@H](OC(C)=O)c1nc(C(=O)NC23C4C5C2C2C3C4C52C(=O)OC)cs1)C(C)C` (some centres not stated) was tested, and the GI50 (SF-539 CNS) was 0.462 µM, the TGI (SF-539 CNS) was > 14.1 µM and the GI50 (SK-MEL-5 melanoma) was 0.299 µM. For the same molecule, the TGI (SK-MEL-5 melanoma) was 6.75 µM, the GI50 (HS 578T breast) was 0.176 µM and the TGI (HS 578T breast) was > 33.2 µM. For the same molecule, the GI50 (MOLT-4 leukemia) was 0.252 µM, the TGI (MOLT-4 leukemia) was > 33.2 µM and the TGI (MALME-3M melanoma) was > 33.2 µM. For the same molecule, the GI50 (HT29 colon) was 0.133 µM, the TGI (HT29 colon) was > 33.2 µM and the GI50 (786-0 renal) was 0.79 µM. The TGI (786-0 renal) was > 33.2 µM, the GI50 (OVCAR-4 ovarian) was 2.81 µM and the TGI (OVCAR-4 ovarian) was > 33.2 µM. For the same molecule, the GI50 (NCI-H23 lung) was 1.42 µM, the TGI (NCI-H23 lung) was > 33.2 µM and the GI50 (ACHN renal) was 2.25 µM. The TGI (ACHN renal) was > 33.2 µM.
